Experimental data taken from patent US4666929A, “Anthranilic acid ester derivatives and antiinflammatory and analgetic external preparations containing the same” (Shiseido Company Ltd., priority 1985, dated 1987).

Tests used:
[1] = system: pain induced by the brewer's yeast; assay: Evaluation Test Example 7 (Analgetic Activity), Randall-Selitto method; format: in vivo, rat; conditions: topical, 2.5 mg/paw, 5 hours after injection of brewer's yeast
Procedure: This method is admitted as a standard method for evaluating non-anesthetic analgesic agent.
The test sample compounds were applied to the both foot pad of hind paws of the rats each in an application amount of 50 μl as a 2.5% ethanol solution. After one hour, 50 μl each of the ethanol solution of the sample compound was again applied and 0.1 ml of a 5% brewer's yeast/physiological saline was immediately subcutaneously applied to one foot pad of the rat as a pain inducing substance. After a predetermined time period, the weight of the pain generation was measured using a horizontal balance type presser and the decrease rate (P1) of the pain threshold value was determined. The above-mentioned evaluation test procedure was also carried out in the control rat group, except that the solvent containing no sample compounds was applied. Thus, the decrease rate (P0) of the pain threshold value in the control group was determined. The inhibition (%) of the pain induced by the brewer's yeast was calculated as follows: [formula] When this value is large, the analgetic activity is high.

in vivo [2] = conditions: mouse, oral, ddY male mice, 7 days of observation
Procedure: The evaluation test was carried out using ddY male mice (i.e., body weight =18 to 22 g, 10 mice in each group).
(§1) The sample compound listed in Table 2 was dispersed in 0.5% carboxymethyl cellulose/physiological saline solution and orally administered in a given amount by a peroral syringe. After the administration, the toxic conditions were observed and the oral acute toxicity (LD50) was calculated from the death number during 7 days of observation according to a Litchfield Wilcoxon method.

UV induced erythema [3] = assay: Evaluation Test Example 5 (Antiinflammatory Activity), ultraviolet erythema method; format: in vivo, guinea pig; conditions: topical, 25 μg/cm^2, 3 hours after UV irradiation
Procedure: The evaluation test of N-(2,3-xylyl) anthranilic acid derivatives was carried out according to the so-called ultraviolet erythema method.
(§2) Healthy Hartley strain albino guinea pigs (i.e., body weight=450-500 g, 10 pigs in each group) were used as the test animals. The back skin of the guinea pigs was clipped and shaved, and sections having a size of 1.41 cm×1.41 cm were prepared in the back skin, by using a rubber plate, symmetrically spaced from the back center line. The divided sections were irradiated with ultraviolet ray having a medium wavelength (i.e., 280-320 nm, λmax =305 nm) to induce erythema. After the UV irradiation, 10 μl of a solution of the test sample compound in olive oil was applied to the sections on one side. The formation of the erythema was observed over a period of time. The average erythema (E1) in the section to which the sample compound was applied and the average erythema (E0) in the section to which no sample compounds were applied were measured. […] [formula] When the inhibitory value (%) is large, the antiinflammatory activity of the sample compound is high.

[4] = system: carrageenan foot pad edema; assay: Evaluation Test Example 3 (Antiinflammatory Activity), rat/carrageenan foot pad edema method; format: in vivo; conditions: oral, 100 mg/kg, 5 hours after λ-carrageenan injection
Procedure: (§3) The antiinflammatory effects of the present compounds were determined according to the so-called rat/carrageenan foot pad edema method. This method is admitted as a standard test method for determining antiinflammatory effects, because this method has a high correlationship with human antiinflammatory effects.
(§4) The evaluation test was carried out using Wister male rats (i.e., body weight =110-130 g, 8 rats in each group) according to a Winter et al method set forth in "Proceedings of the Society for Experimental Biology & Medicine, 111, p 554, 1962).
(§5) The sample compounds listed in Table 4 were dispersed in a 0.5% aqueous carboxymethyl cellulose solution and orally administered in a dosage of 100 mg/kg. One hour after the administration, 0.1 ml of a 1% λ-carrageenan/physiological saline was subcutaneously applied to the foot pad of one paw of the rat as an inflammatory inducing substance. Thus, the edema was caused. The volumes of the foot pad were measured in the predetermined constant time period before and after the administration and the increase (V1) in the volume was calculated. On the other hand, the increase (V0) in the volume of the foot pad of the control rats, to which the aqueous 0.5% carboxymethyl cellulose solution containing no test sample compounds, was determined by injecting the λ-carageenan. Thus, the inhibition (%) of the carageenan edema was calculated as follows: [formula] The antiinflammatory activity is high when this value is large.

in vivo [5] = conditions: mouse, in vivo; oral, ICR female mice
Procedure: (§6) The evaluation test was carried out using ICR female mice (i.e., body weight=18 to 22 g, 10 mice in each group).
as §1, with “compounds” for “compound”, “3 were” for “2 was”, “2.0%” for “0.5%”, “number” for “number during 7 days of observation”, “Van Der Werden” for “Litchfield Wilcoxon”

ICR female mice = assay: in vivo
Procedure: as §6
as §1, with “compounds” for “compound”, “3 were” for “2 was”, “2.0%” for “0.5%”, “number” for “number during 7 days of observation”, “Van Der Werden” for “Litchfield Wilcoxon”

[6] = system: carrageenan foot pad edema; assay: Evaluation Test Example 4 (Antiinflammatory Activity), rat/carrageenan foot pad edema method; format: in vivo; conditions: oral, 100 mg/kg; for Prevention % (carrageenan edema): 5 hours after λ-carrageenan injection
Procedure: as §3, §4, §5
The evaluation test of 2-furanmethyl-N-(2,3-xylyl) anthranilate was carried out in the same manner as in Evaluation Test Example 3.

UV induced erythema [7] = assay: Evaluation Test Example 6 (Antiinflammatory Activity), ultraviolet erythema method; format: in vivo, guinea pig; conditions: topical; for Prevention % (UV induced erythema): 25 μg/cm^2, 3 hours after UV irradiation
Procedure: as §2
The anti-inflammatory activity test of 2-furanmethyl-N-(2,3-xylyl)anthranilate was carried out in the same manner as in Evaluation Test Example 5.

[8] = background art; cited from earlier work
[9] = oral administration, background art; cited from earlier work

Cc1cccc(Nc2ccccc2C(=O)OCCc2ccccn2)c1C [2-(2-pyridyl)ethyl-N-(2,3-xylyl)anthranilate]
Inhibition % (pain induced by brewer's yeast) [1]: 45.5%

Cc1cccc(Nc2ccccc2C(=O)OCCCc2cccnc2)c1C [drawing 8]
LD50 at 168 h (in vivo [2]): 3750 mg/kg

CC(C)Cc1ccc(C(C)C(=O)OCc2ccccn2)cc1 (centres unmarked) [2-(p-isobutylphenyl)propionic acid-2-pyridylmethyl ester, reference compound]
Inhibition % (pain induced by brewer's yeast) [1]: 39.2%

Cc1cccc(Nc2ccccc2C(=O)OCCc2ccccn2)c1C [drawing 15]
Inhibition % (UV induced erythema) (UV induced erythema [3]): 35.4%

Cc1cccc(Nc2ccccc2C(=O)OCc2ccncc2)c1C [drawing 11]
Inhibition % (carrageenan edema) [4]: 53.5%

Cc1cccc(Nc2ccccc2C(=O)OCc2cccnc2)c1C [3-pyridylmethyl-N-(2,3-xylyl)anthranilate]
Inhibition % (pain induced by brewer's yeast) [1]: 48.3%

Cc1cccc(Nc2ccccc2C(=O)OCc2ccccn2)c1C [drawing 4]
LD50 at 168 h (in vivo [2]): 4420 mg/kg

Cc1cccc(Nc2ccccc2C(=O)OCc2cccnc2)c1C [drawing 10]
Inhibition % (carrageenan edema) [4]: 55.2%

Cc1cccc(Nc2ccccc2C(=O)OCc2ccco2)c1C [2-furanmethyl-N-(2,3-xylyl)anthranilate]
LD50 (in vivo [5]): 5480 mg/kg
LD50 relative to known N-(2,3-xylyl)anthranilic acid (ICR female mice; oral): about 4 times higher
toxicity (ICR female mice; oral acute toxicity, in words): very low
Prevention % (carrageenan edema) [6]: 50.7%
edema inhibitory activity versus N-(2,3-xylyl)anthranilic acid ([6]; in words): as strong as for the known N-(2,3-xylyl)anthranilic acid
Prevention % (UV induced erythema) (UV induced erythema [7]): 54.3%
erythema [inhibition] versus N-(2,3-xylyl)anthranilic acid (UV induced erythema [7]; 25 μg/cm^2, in words): stronger than that of the known N-(2,3-xylyl)anthranilic acid
Inhibition % (pain induced by brewer's yeast) [1]: 56.5%

Cc1cccc(Nc2ccccc2C(=O)OCc2cccnc2)c1C [drawing 5]
LD50 at 168 h (in vivo [2]): 3820 mg/kg

Cc1cccc(Nc2ccccc2C(=O)O)c1C [N-(2,3-xylyl)anthranilic acid, reference compound]
Inhibition % (carrageenan edema) [4]: 56.8%
Prevention % (carrageenan edema) [6]: 46.8%
Inhibition % (UV induced erythema) (UV induced erythema [3]): 32.8%
Prevention % (UV induced erythema) (UV induced erythema [7]): 35.4%
Inhibition % (pain induced by brewer's yeast) [1]: 32.8%
solubility in water, an alcohol, or an oil [8]: very difficult to dissolve
side effects [9]: various side effects including enterogasteric disorders, renal disorders, and vertigo occur

Cc1cccc(Nc2ccccc2C(=O)OCc2ccccn2)c1C [drawing 9]
Inhibition % (carrageenan edema) [4]: 61.3%

Cc1cccc(Nc2ccccc2C(=O)OCCCc2cccnc2)c1C [drawing 16]
Inhibition % (UV induced erythema) (UV induced erythema [3]): 33.2%

Cc1cccc(Nc2ccccc2C(=O)OCc2ccncc2)c1C [drawing 14]
Inhibition % (UV induced erythema) (UV induced erythema [3]): 43.1%

Cc1cccc(Nc2ccccc2C(=O)OCc2cccnc2)c1C [drawing 13]
Inhibition % (UV induced erythema) (UV induced erythema [3]): 51.3%

Cc1cccc(Nc2ccccc2C(=O)OCc2ccccn2)c1C [drawing 12]
Inhibition % (UV induced erythema) (UV induced erythema [3]): 47.6%

Cc1cccc(Nc2ccccc2C(=O)OCCc2ccccn2)c1C [drawing 7]
LD50 at 168 h (in vivo [2]): 4100 mg/kg

Cc1cccc(Nc2ccccc2C(=O)OCc2ccncc2)c1C [drawing 6]
LD50 at 168 h (in vivo [2]): 4850 mg/kg

Cc1cccc(Nc2ccccc2C(=O)OCc2ccccn2)c1C [2-pyridylmethyl-N-(2,3-xylyl)anthranilate]
Inhibition % (pain induced by brewer's yeast) [1]: 53.6%
